Experimental data taken from patent US11466028B2, “Fused 1,4-oxazepines as BET protein degraders” (THE REGENTS OF THE UNIVERSITY OF MICHIGAN, priority 2016, dated 2022).

What was measured:
Type in all cases: cell-based
[1] = system: MOLM-13; test: CellTiter-Glo cell growth inhibition, MOLM-13; settings: Homo sapiens, MOLM-13, 96 h, 4 days, Table 4, read-out: MOLM-13 IC50
Method: (§1) Cell growth inhibitory activity of representative Compounds of the Disclosure was determined using the CellTiter-Glo® Luminescent Cell Viability Assay. Cells were seeded in 384-well white opaque cell culture plates at a density of 2,000 cells/well with serially diluted compounds and incubated at 37° C. in an atmosphere of 95% air and 5% CO2 for 4 days. Cell viability was determined using the CellTiter-Glo® Luminescent Cell Viability Assay Kit (Promega, Madison, Wis.) according to the manufacture's instruction. Briefly, a volume of CellTiter-Glo® Reagent equal to the volume of cell culture medium was added to each well, and then the plates were incubated at room temperature for 10-20 minutes. The luminescent signal was measured using a Tecan Infinite M1000 multimode microplate reader (Tecan, Morrisville, N.C.). The half maximal inhibitory concentration (IC50) was calculated using the GraphPad Prism 5 software (GraphPad Software, La Jolla, Calif.).
(§2) Cpd. Nos. 18 and 19 were tested in various leukemia cell lines using the CellTiter-Glo® Luminescent Cell Viability Assay as described in Example 35.

[2] = system: MDA-MB-231; test: CellTiter-Glo cell growth inhibition, MDA-MB-231; settings: Homo sapiens, MDA-MB-231, 96 h, 4 days, Table 4
Method: as §1

[3] = system: RS4;11; test: CellTiter-Glo cell growth inhibition, RS4;11; settings: Homo sapiens, RS4-11, 96 h, 4 days, Table 4, read-out: RS-4, 11 IC50
Method: as §1, §2

Row | IC50 [1] [nM] | IC50 [2] [nM] | IC50 [3] [nM] | Compound
1 | 2.8 | 2.4 | < 0.1 | Cc1nnc2n1-c1sc(C#Cc3ccc(CCCCNc4cccc5c4CN(C4CCC(=O)NC4=O)C5=O)nc3)c(Cc3ccccc3)c1COC2 (centres unmarked) [Cpd. No. 46, 3-(4-((4-(5-((3-benzyl-9-methyl-4H,6H-thieno[2,3-e][1,2,4]triazolo[3,4-c][1,4]oxazepin-2-yl)ethynyl)pyridin-2-yl)butyl)amino)-1-oxoisoindolin-2-yl) piperidine-2,6-dione]
2 | 3.8 | 16 | 0.7 | Cc1nnc2n1-c1sc(C#Cc3cn(CCCC#Cc4cccc5c4CN(C4CCC(=O)NC4=O)C5=O)cn3)c(Cc3ccccc3)c1CO[C@H]2C (stereo partly drawn) [Cpd. No. 20, 3-(4-(5-(4-(((S)-3-benzyl-6,9-dimethyl-4H,6H-thieno[2,3-e][1,2,4]triazolo[3,4-c][1,4]oxazepin-2-yl)ethynyl)-1H-imidazol-1-yl)pent-1-yn-1-yl)-1-oxoisoindolin-2-yl)piperidine-2,6-dione]
3 | > 1000 | > 1000 | > 1000 | Cc1nnc2n1-c1sc(C#Cc3cnc(CCCC#Cc4cccc5c4C(=O)N(C4CCC(=O)NC4=O)C5=O)[nH]3)c(Cc3ccccc3)c1CO[C@H]2C (stereo partly drawn) [Cpd. No. 12, 4-(5-(5-(((S)-3-benzyl-6,9-dimethyl-4H,6H-thieno[2,3-e][1,2,4]triazolo[3,4-c][1,4]oxazepin-2-yl)ethynyl)-1H-imidazol-2-yl)pent-1-yn-1-yl)-2-(2,6-dioxopiperidin-3-yl)isoindoline-1,3-dione]
4 | 9.6 | 5.5 | 0.56 | Cc1nnc2n1-c1sc(C#Cc3cnn(CCCC#Cc4cccc5c4C(=O)N(C4CCC(=O)NC4=O)C5=O)c3)c(Cc3ccccc3)c1COC2 (centres unmarked) [Cpd. No. 49, 4-(5-(4-((3-benzyl-9-methyl-4H,6H-thieno[2,3-e][1,2,4]triazolo[3,4-c][1,4]oxazepin-2-yl)ethynyl)-1H-pyrazol-1-yl)pent-1-yn-1-yl)-2-(2,6-dioxopiperidin-3-yl)isoindoline-1,3-dione]
5 | 7.5 | 25 | 0.2 | Cc1nnc2n1-c1sc(C#Cc3cnc(CCCC#Cc4cccc5c4CN(C4CCC(=O)NC4=O)C5=O)n3C)c(Cc3ccccc3)c1CO[C@H]2C (stereo partly drawn) [Cpd. No. 15, 3-(4-(5-(5-(((S)-3-benzyl-6,9-dimethyl-4H,6H-thieno[2,3-e][1,2,4]triazolo[3,4-c][1,4]oxazepin-2-yl)ethynyl)-1-methyl-1H-imidazol-2-yl)pent-1-yn-1-yl)-1-oxoisoindolin-2-yl)piperidine-2,6-dione]
6 | 20 | 58 | 1.8 | Cc1nnc2n1-c1sc(C#Cc3cn(CCCCNc4cccc5c4CN(C4CCC(=O)NC4=O)C5=O)cn3)c(Cc3ccccc3)c1CO[C@H]2C (stereo partly drawn) [Cpd. No. 13, 3-(4-((4-(4-(((S)-3-benzyl-6,9-dimethyl-4H,6H-thieno[2,3-e][1,2,4]triazolo[3,4-c][1,4]oxazepin-2-yl)ethynyl)-1H-imidazol-1-yl)butyl)amino)-1-oxoisoindolin-2-yl)piperidine-2,6-dione]
7 | 118 | 1490 |  | Cc1nnc2n1-c1sc(C#Cc3ccc(CNc4cccc5c4C(=O)N(C4CCC(=O)NC4=O)C5=O)nc3)c(Cc3ccccc3)c1CO[C@H]2C (stereo partly drawn) [Cpd. No. 8, 4-(((5-(((S)-3-benzyl-6,9-dimethyl-4H,6H-thieno[2,3-e][1,2,4]triazolo[3,4-c][1,4]oxazepin-2-yl)ethynyl)pyridin-2-yl)methyl)amino)-2-(2,6-dioxopiperidin-3-yl) isoindoline-1,3-dione]

Row | Compound | IC50 [1] [nM] | IC50 [2] [nM] | IC50 [3] [nM]
8 | Cc1nnc2n1-c1sc(C#Cc3cnn(CCCCOc4cccc5c4C(=O)N(C4CCC(=O)NC4=O)C5=O)c3)c(Cc3ccccc3)c1COC2 (centres unmarked) [Cpd. No. 45, 4-(4-(4-((3-benzyl-9-methyl-4H,6H-thieno[2,3-e][1,2,4]triazolo[3,4-c][1,4]oxazepin-2-yl)ethynyl)-1H-pyrazol-1-yl)butoxy)-2-(2,6-dioxopiperidin-3-yl) isoindoline-1,3-dione] | 3.2 | 3.2 | < 0.1
